Data taken from article PMC10992376, “High coenzyme affinity chimeric amine dehydrogenase based on domain engineering” (Bioresources and Bioprocessing, 2022).
Read-outs that look alike come from different tables or passages of the source.

Test system: T1, cFLF-AmDH
T1 construct: gene pdh; KS/NL parents; C-terminal His6; E. coli BL21(DE3)
Test: NADH oxidation at […] nm, Michaelis-Menten fit
Assay type: biochemical, Pseudobacillus badius
Conditions: 2 M NH4Cl/NH4OH, optimum pH and temperature (table note; Methods: 100 mM NH4Cl/NH4OH, pH 8.5, 30 °C)

| Structure (SMILES) | Km (read-out: NADH / Km, co-substrate pFPA) [mM] | Km (co-substrate NADH, ammonium, read-out: pFPA / Km) [mM] |
| --- | --- | --- |
| NC(=O)C1=CN([C@@H]2O[C@H](COP(=O)(O)OP(=O)(O)OC[C@H]3O[C@@H](n4cnc5c(N)ncnc54)[C@H](O)[C@@H]3O)[C@@H](O)[C@H]2O)C=CC1 [NADH] | 0.49 ± 0.02 | – |
| CC(=O)Cc1ccc(F)cc1 [p-FPA] | – | 21.8 ± 2.67 |
